# Assay results: patent US20240238300A1, “TREATMENT METHODS FOR SUBJECTS WITH CANCER HAVING AN ABERRATION IN EGFR AND/OR HER2” (TAIHO PHARMACEUTICAL CO., LTD., priority 2021, published 2024)
# Read-outs that look alike come from different tables or passages of the source.
# What was measured:
# [1] = system: 257 kinases; experiment: panel enzyme assay of 257 kinases, whole panel; assay type: biochemical; settings: 1000 nmol/L
# Method: To investigate further kinase selectivity of Compound (1), a panel enzyme assay of 257 kinases for Compound (1) was conducted.
# [2] = system: SK-BR-3 cells; experiment: feedback activation of HER3, downstream targets and apoptosis markers in SK-BR-3 cells; assay type: cell-based, human; settings: 48 hours
# Text: The effect of Compound (1) on feedback activation of HER3, its downstream targets (ERK and AKT), and apoptosis markers (BIM and cleaved PARP) in SK-BR-3 cells was investigated. In addition, the same information for lapatinib and tucatinib (a reversible inhibitor of HER2) was obtained.
# [3] = system: BT-474 cells; experiment: growth inhibitory effect in human cancer cell lines (GI50); assay type: cell-based; settings: breast cancer, HER2 gene amplification
# Text: (§1) Among the 9 cell lines tested, HER2 gene amplification has previously been reported in BT-474 cells (breast cancer) and NCI-N87 cells (gastric cancer), while HER2 gene mutation (DelG776insVC) has been reported in NCI-H1781 cells (lung cancer).
# [4] = system: NCI-H1781 cells; experiment: as above; assay type: cell-based; settings: lung cancer, HER2 DelG776insVC
# Text: as §1
# [5] = system: NCI-N87 cells; experiment: as above; assay type: cell-based; settings: gastric cancer, HER2 gene amplification
# Text: as §1
# [6] = system: NCI-H1975 EGFR D770_N771insSVD cells; experiment: as above; assay type: cell-based; settings: lung cancer, EGFR exon 20 insertion
# [7] = system: intracranial NCI-N87-luc human gastric carcinoma xenografts; experiment: intracranial antitumor effect, NCI-N87-luc xenografts; assay type: in vivo, nude mice; settings: Day 22
# Method: The intracranial antitumor effect of Compound (1) was evaluated using Compound (1) in nude mice intracranially implanted with NCI-N87-luc cells, which were engineered to stably express the luciferase gene using the HER2-overexpressing NCI-N87 human gastric carcinoma cell line. Compound (1) dosing suspensions using 0.5% w/v HPMC as vehicle were prepared with Compound (1) at 3 dose levels (16.0, 20.0, or 25.0 mg/kg/day) and administered PO QD for 21 days. The control group received 0.5% weight per volume (w/v) hydroxypropyl methylcellulose (HPMC) solution orally once daily for 21 days. The antitumor effect of poziotinib was also evaluated using this model. Poziotinib was administered PO QD for 21 days at 2 dose levels (0.5 or 1.0 mg/kg/day).
# [8] = plasma protein binding, equilibrium dialysis; assay type: in vitro ADME
# Method: Plasma protein binding of Compound (1). Plasma protein binding of Compound (1) in mice, rats, dogs, monkeys, and humans was determined using the equilibrium dialysis method.
# [9] = brain binding, brain homogenate, equilibrium dialysis; assay type: in vitro ADME, nude mouse
# Method: Brain binding of Compound (1) in nude mice. Brain binding of Compound (1) at 0.005, 0.01, 0.05, 0.1, and 0.5 μmol/L using nude mouse brain homogenate was evaluated by equilibrium dialysis method. The brain binding at […] was not calculated due to the limit of quantification by LC-MS/MS, but at 0.05, 0.1, and 0.5 μmol/L was 99.6±0.0%, 99.5±0.0%, and 99.5±0.0%, respectively.
# [10] = brain penetrability after single oral administration; assay type: in vivo, male nude mice; settings: male, nude, mouse
# Method: Brain penetrability of Compound (1) in nude mice. The brain penetrability of Compound (1) was confirmed by Kp,brain values at 0.5 and 1 hour in male nude mice following a single oral administration at 50 mg/kg (Table 6). Based on the brain penetrability study and brain and plasma protein binding studies, Kp,uu,brain was calculated to be 0.26±0.05 for 0.5 hour and 0.13±0.03 for 1 hour.
# [11] = system: NCI-N87 xenografts relapsed from T-mab and P-mab; experiment: refractory T-mab/P-mab model Step II; assay type: in vivo; settings: for RTV (mean ± SE): Day 15 to Day 1 (Step II); for BWC (mean ± SE): Day 15 vs Day 1 (Step II); for T/C: Step II Day 15, vs T-mab + P-mab group; for Number of Death / TV (mean ± SE): Step II Day 15
# Method: Male nude mice (BALB/cAJcl-mu/mu) were implanted with NCI-N87 human gastric carcinoma (HER2 overexpressing); 1.0×10^7 cells in 100 μL of PBS were implanted subcutaneously per mouse.
# [12] = system: NCI-N87 xenografts relapsed from T-DM1; settings: for T/C: Step II Day 22, vs T-DM1 group; for Number of Death / TV (mean ± SE): Step II Day 22
# Method: Male nude mice (BALB/cAJ1-mu/mu) were implanted with NCI-N87 human gastric carcinoma (HER2 overexpressing); 1.0×10^7 cells in 100 μL of PBS were implanted subcutaneously per mouse.
# PO; or treated with an oral suspension of Compound (1) once per day at a dosage of 25 mg/kg/day, PO. The tumor volumes (TV, mm^3) and body weights of the mice were recorded.
smiles,measurement,setting,value
"C=CC(=O)N1C[C@H](n2c(C#CC3CC3)c(C(=O)N[C@H](C)c3ccccc3)c3c(N)ncnc32)C[C@@H]1C [Compound (1), 7-((3R,5S)-1-acryloyl-5-methylpyrrolidin-3-yl)-4-amino-6-(cyclopropylethynyl)-N—((R)-1-phenylethyl)-7H-pyrrolo[2,3-d]pyrimidine-5-carboxamide]",number of the 257 kinases tested with ≥50% inhibition of activity,[1],14
same,inhibition of activity for the other 243 kinases,[1]; weak inhibition or no inhibitory effect,< 50%
same,BIM and cleaved PARP,[2]; 10 to 100 nmol/L,markedly increased
same,"phosphorylation of HER2, HER3, AKT, and ERK",[2]; concentrations starting as low as 10 nmol/L,sustained inhibition
same,GI50,[3],2.05 ± 0.48 nM
same,GI50,[4],5.85 ± 2.83 nM
same,GI50,[5],0.891 ± 0.312 nM
same,GI50,[6],8.71 ± 4.56 nM
same,T/C ratio of the mean total flux,[7]; 16.0 mg/kg/day PO QD 21 days,16.9%
same,mean body weight change (BWC),[7]; 16.0 mg/kg/day,1.4%
same,T/C ratio of the mean total flux,[7]; 20.0 mg/kg/day PO QD 21 days,4.7%
same,mean body weight change (BWC),[7]; 20.0 mg/kg/day,−0.4%
same,fraction unbound,"[8]; dog, dogs, 0.2, 2, and 20 μmol/L",0.02 to 0.026
same,fraction unbound,"[8]; human, humans, 0.2, 2, and 20 μmol/L",0.004 to 0.006
same,fraction unbound,"[8]; monkey, monkeys, 0.2, 2, and 20 μmol/L",0.015 to 0.02
same,fraction unbound,"[8]; mouse, mice, 0.2, 2, and 20 μmol/L",0.005 to 0.012
same,fraction unbound,"[8]; rat, rats, 0.2, 2, and 20 μmol/L",0.011 to 0.027
same,brain binding,[9]; 0.05 μmol/L,99.6±0.0%
same,brain binding,[9]; 0.1 μmol/L,99.5±0.0%
same,brain binding,[9]; 0.5 μmol/L,99.5±0.0%
same,Kp uu at 0.5 h,"[10]; brain and plasma (unbound), 0.5 hr after single oral 50 mg/kg",0.26 ± 0.05
same,Kp uu at 1 h,"[10]; brain and plasma (unbound), 1 hr after single oral 50 mg/kg",0.13 ± 0.03
same,Kp at 0.5 h,"[10]; brain, 0.5 hr after single oral 50 mg/kg",0.415 ± 0.08
same,concentration at 0.5 h,"[10]; brain, 0.5 hr after single oral 50 mg/kg, read-out: Brain Concentration",3590 ± 600 ng/g
same,Kp at 1 h,"[10]; brain, 1 hr after single oral 50 mg/kg",0.206 ± 0.042
same,concentration at 1 h,"[10]; brain, 1 hr after single oral 50 mg/kg, read-out: Brain Concentration",1290 ± 440 ng/g
same,concentration at 0.5 h,"[10]; plasma, 0.5 hr after single oral 50 mg/kg, read-out: Plasma Concentration",8720 ± 650 ng/mL
same,concentration at 1 h,"[10]; plasma, 1 hr after single oral 50 mg/kg, read-out: Plasma Concentration",6170 ± 910 ng/mL
same,body weight loss (tolerance),[11]; 12.5 and 25 mg/kg/day,did not cause severe body weight loss
same,RTV (mean ± SE),[11]; 12.5 mg/kg/day po Days 1-14,1.2
same,RTV (mean ± SE),[11]; 25 mg/kg/day po Days 1-14,1.0
same,BWC (mean ± SE),[11]; 12.5 mg/kg/day po Days 1-14,−1.2%
same,BWC (mean ± SE),[11]; 25 mg/kg/day po Days 1-14,−4.4%
same,T/C,[11]; 12.5 mg/kg/day po Days 1-14,52.5%
same,T/C,[11]; 25 mg/kg/day po Days 1-14,46.1%
same,Number of Death,[11]; 12.5 mg/kg/day po Days 1-14,0
same,TV (mean ± SE),[11]; 12.5 mg/kg/day po Days 1-14,412.5 mm^3
same,Number of Death,[11]; 25 mg/kg/day po Days 1-14,0
same,TV (mean ± SE),[11]; 25 mg/kg/day po Days 1-14,362.4 mm^3
same,body weight loss (tolerance),[12]; 12.5 and 25 mg/kg/day,did not cause severe body weight loss
same,T/C,[12]; 12.5 mg/kg/day po Days 1-21,75.7%
same,T/C,[12]; 25 mg/kg/day po Days 1-21,62.4%
same,Number of Death,[12]; 12.5 mg/kg/day po Days 1-21,0
same,TV (mean ± SE),[12]; 12.5 mg/kg/day po Days 1-21,435.7 mm^3
same,Number of Death,[12]; 25 mg/kg/day po Days 1-21,0
same,TV (mean ± SE),[12]; 25 mg/kg/day po Days 1-21,353.7 mm^3
